Assay results: patent US20250289813A1, “CDK INHIBITORS, PHARMACEUTICAL COMPOSITIONS, AND THERAPEUTIC APPLICATIONS” (ONQUALITY PHARMACEUTICALS CHINA LTD., priority 2022, published 2025)

Experiments:
CDK6/cyclin D1 = CDK6/cyclin D1 (Homo sapiens (Human), UniProt Q00534); assay: CDK6 Caliper Mobility Shift assay; format: biochemical
Description: (§1) A Caliper Mobility Shift assay was used to determine the inhibitory activities of a compound against CDK4/cyclin D1 and CDK6/cyclin D1 in their respective kinase buffers (CDK4: 20 mM HEPES, pH 7.5, and 0.01% Triton X-100; CDK6: 50 mM HEPES, pH 7.5, and 0.0015% BRIJ-35). The CDK4/cyclin D1 and CDK6/cyclin D1 were obtained from PROQINASE and CARNA, respectively. A FAM-labeled peptide was obtained from GL.
(§2) The compound at predetermined concentrations was pre-incubated with CDK4/cyclin D1 or CDK6/cyclin D1 in a 384-well microplate at room temperature for 10 min. The FAM-labeled peptide and ATP were subsequently added to initiate the kinase reactions. The final enzyme concentrations were 15 nM for CDK4 and 7.5 nM for CDK6. The final ATP concentrations were […] for CDK4 and […] for CDK6. The microplate was allowed to incubate at 28° C. The kinase reactions were stopped by adding a stop buffer (100 mM HEPES, pH 7.5, 0.012% BRIJ-35, 0.2% Coating Reagent 3 (Caliper Life Sciences), and […]). Conversion data were recorded and utilized to calculate the percent inhibition values for each compound and an IC50 value was then determined. The results are summarized in Table 1, where the symbol “***” represents a value no greater than 200 nM, the symbol “**” represents a value greater than 200 nM but no greater than 500 nM, and the symbol “*” represents a value greater than 500 nM.

CDK4/cyclin D1 = CDK4/cyclin D1 (Homo sapiens (Human), UniProt P11802); assay: CDK4 Caliper Mobility Shift assay; format: biochemical
Description: as §1, §2

[1] = system: MCF-7 human breast cancer cells; assay: CELLTITER-GLO luminescent cell viability assay; format: cell-based; details: MCF7, 192 h, MCF-7 cells, 8 days, read-out: EC50 (Effect on Cell Viability)
Description: A CELLTITER-GLO luminescent cell viability assay was carried out using MCF-7 human breast cancer cells under the normal growth condition. The MCF-7 human breast cancer cells were grown at 37° C. in a 5% CO2 humidified incubator in EMEM, supplemented 10% FBS, 0.01 mg/mL bovine insulin. The cells were seeded at a 3,000 cells/well in a 96-well tissue culture plate. The cells were allowed to adhere overnight in the incubator. A compound (5 μL) in a medium at a predetermined concentration. After the cells was incubated at 37° C. for 8 days, a CELLTITER-GLO detection solution (100 μL) was added. The cells were mixed on an orbital shaker for 5 min and then incubated for additional 10 min. The plate was read with an ENVISION reader. The results are summarized in Table 2, where the symbol “+++” represents a value no greater than 1 μM, the symbol “++” represents a value greater than 1 μM but no greater than 10 μM, and the symbol “+” represents a value greater than 10 μM.

Chain of CDK4/cyclin D1 (P11802 whole entry): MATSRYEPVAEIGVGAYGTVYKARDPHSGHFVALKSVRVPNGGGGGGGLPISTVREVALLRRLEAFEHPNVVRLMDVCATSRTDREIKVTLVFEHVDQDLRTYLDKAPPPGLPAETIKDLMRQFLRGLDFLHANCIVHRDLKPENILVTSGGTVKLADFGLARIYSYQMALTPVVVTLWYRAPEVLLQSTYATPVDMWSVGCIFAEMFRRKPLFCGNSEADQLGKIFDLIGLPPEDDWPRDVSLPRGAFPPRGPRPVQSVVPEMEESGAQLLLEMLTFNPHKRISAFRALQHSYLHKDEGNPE
Chain of CDK4/cyclin D1 (P24385 whole entry partner): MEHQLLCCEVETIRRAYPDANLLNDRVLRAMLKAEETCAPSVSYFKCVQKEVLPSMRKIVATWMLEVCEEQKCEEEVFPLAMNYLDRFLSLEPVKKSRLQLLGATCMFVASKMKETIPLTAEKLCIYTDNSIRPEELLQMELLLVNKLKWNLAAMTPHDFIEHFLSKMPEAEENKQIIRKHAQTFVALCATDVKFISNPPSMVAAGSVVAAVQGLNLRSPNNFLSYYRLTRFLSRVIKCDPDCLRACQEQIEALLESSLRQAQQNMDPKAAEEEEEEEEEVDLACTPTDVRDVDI
Chain of CDK6/cyclin D1 (Q00534 whole entry): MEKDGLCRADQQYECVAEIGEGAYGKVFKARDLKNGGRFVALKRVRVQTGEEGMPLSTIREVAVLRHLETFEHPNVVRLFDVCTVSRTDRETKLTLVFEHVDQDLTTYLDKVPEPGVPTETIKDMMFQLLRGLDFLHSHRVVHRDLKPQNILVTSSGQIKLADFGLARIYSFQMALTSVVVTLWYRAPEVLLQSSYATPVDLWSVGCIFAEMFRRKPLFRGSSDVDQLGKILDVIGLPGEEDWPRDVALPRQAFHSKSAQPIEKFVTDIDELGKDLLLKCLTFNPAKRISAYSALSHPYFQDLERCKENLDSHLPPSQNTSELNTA
Chain of CDK6/cyclin D1 (P24385 whole entry partner): as the sequence (P24385 whole entry partner) above

**Q.** `CC(=O)OCCOC(=O)NS(=O)(=O)N1CCN(c2ccc(Nc3ncc4c(C)c(C(C)=O)c(=O)n(C5CCCC5)c4n3)nc2)CC1` [Compound A9, 2-((((4-(6-((6-Acetyl-8-cyclopentyl-5-methyl-7-oxo-7,8-dihydropyrido[2,3-d]-pyrimidin-2-yl)amino)pyridin-3-yl)piperazin-1-yl)sulfonyl)carbamoyl)oxy)ethyl acetate] was tested. Which IC50 (CDK6/cyclin D1) did it give?
**A.** ≤ 0.2 µM

**Q.** And the IC50 (CDK4/cyclin D1)?
**A.** ≤ 0.2 µM

**Q.** And the EC50 [1]?
**A.** 1 to 10 µM

**Q.** With `CC(=O)c1c(C)c2cnc(Nc3ccc(N4CCN(S(=O)(=O)NC(=O)OCCNC(=O)[C@@H](N)C(C)C)CC4)cn3)nc2n(C2CCCC2)c1=O` [Compound A14, (S)-2-(2-Amino-3-methylbutanamido)ethyl ((4-(6-((6-acetyl-8-cyclopentyl-5-methyl-7-oxo-7,8-dihydropyrido[2,3-d]pyrimidin-2-yl)amino)pyridin-3-yl)piperazin-1-yl)sulfonyl)carbamate] as the molecule, how does the IC50 (CDK6/cyclin D1) read?
**A.** ≤ 0.2 µM

**Q.** And the IC50 (CDK4/cyclin D1)?
**A.** ≤ 0.2 µM

**Q.** What about the EC50 [1] of the same molecule?
**A.** > 10 µM

**Q.** Which results are given for `CC(=O)c1c(C)c2cnc(Nc3ccc(N4CCN(S(=O)(=O)NC(=O)OCCNC(=O)[C@@H](N)CO)CC4)cn3)nc2n(C2CCCC2)c1=O` [Compound A18, (S)-2-(2-Amino-3-hydroxypropanamido)ethyl ((4-(6-((6-acetyl-8-cyclopentyl-5-methyl-7-oxo-7,8-dihydropyrido[2,3-d]pyrimidin-2-yl)amino)pyridin-3-yl)piperazin-1-yl)-sulfonyl)carbamate]?
**A.** IC50 (CDK6/cyclin D1): ≤ 0.2 µM; IC50 (CDK4/cyclin D1): ≤ 0.2 µM; EC50 [1]: > 10 µM

**Q.** Which results are given for `CSCC[C@H](N)C(=O)NCCOC(=O)NS(=O)(=O)N1CCN(c2ccc(Nc3ncc4c(C)c(C(C)=O)c(=O)n(C5CCCC5)c4n3)nc2)CC1` [Compound A19, (S)-2-(2-Amino-4-(methylthio)butanamido)ethyl ((4-(6-((6-acetyl-8-cyclopentyl-5-methyl-7-oxo-7,8-dihydropyrido[2,3-d]pyrimidin-2-yl)amino)pyridin-3-yl)piperazin-1-yl)-sulfonyl)carbamate]?
**A.** IC50 (CDK6/cyclin D1): ≤ 0.2 µM; IC50 (CDK4/cyclin D1): ≤ 0.2 µM; EC50 [1]: > 10 µM

**Q.** How did the IC50 (CDK6/cyclin D1) turn out when `CC(=O)c1c(C)c2cnc(Nc3ccc(N4CCN(S(=O)(=O)NC(=O)OC5CCC5)CC4)cn3)nc2n(C2CCCC2)c1=O` [Compound A23, Cyclobutyl ((4-(6-((6-acetyl-8-cyclopentyl-5-methyl-7-oxo-7,8-dihydropyrido[2,3-d]pyrimidin-2-yl)amino)pyridin-3-yl)piperazin-1-yl)sulfonyl)carbamate] was run?
**A.** ≤ 0.2 µM

**Q.** What about the IC50 (CDK4/cyclin D1) of the same molecule?
**A.** > 0.5 µM

**Q.** And the EC50 [1]?
**A.** 1 to 10 µM

**Q.** What does the source list for `CC(=O)c1c(C)c2cnc(Nc3ccc(N4CCN(S(=O)(=O)NC(=O)OC5CC5)CC4)cn3)nc2n(C2CCCC2)c1=O` [Compound A24, Cyclopropyl ((4-(6-((6-acetyl-8-cyclopentyl-5-methyl-7-oxo-7,8-dihydropyrido[2,3-d]pyrimidin-2-yl)amino)pyridin-3-yl)piperazin-1-yl)sulfonyl)carbamate]?
**A.** IC50 (CDK6/cyclin D1): ≤ 0.2 µM; IC50 (CDK4/cyclin D1): ≤ 0.2 µM; EC50 [1]: 1 to 10 µM

**Q.** What does the source list for `CCOC(=O)NS(=O)(=O)N1CCN(c2ccc(Nc3ncc4c(C)c(C(C)=O)c(=O)n(C5CCCC5)c4n3)nc2)CC1` [Compound A25, Ethyl ((4-(6-((6-acetyl-8-cyclopentyl-5-methyl-7-oxo-7,8-dihydropyrido[2,3-d]-pyrimidin-2-yl)amino)pyridin-3-yl)piperazin-1-yl)sulfonyl)carbamate]?
**A.** IC50 (CDK6/cyclin D1): ≤ 0.2 µM; IC50 (CDK4/cyclin D1): 0.2 to 0.5 µM; EC50 [1]: 1 to 10 µM

**Q.** For `COC(=O)NS(=O)(=O)N1CCN(c2ccc(Nc3ncc4c(C)c(C(C)=O)c(=O)n(C5CCCC5)c4n3)nc2)CC1` [Compound A26, Methyl ((4-(6-((6-acetyl-8-cyclopentyl-5-methyl-7-oxo-7,8-dihydropyrido[2,3-d]-pyrimidin-2-yl)amino)pyridin-3-yl)piperazin-1-yl)sulfonyl)carbamate], which IC50 (CDK6/cyclin D1) is on record?
**A.** ≤ 0.2 µM

**Q.** What about the IC50 (CDK4/cyclin D1) of the same molecule?
**A.** ≤ 0.2 µM

**Q.** What about the EC50 [1] of the same molecule?
**A.** 1 to 10 µM

**Q.** How did the IC50 (CDK6/cyclin D1) turn out when `CC(=O)c1c(C)c2cnc(Nc3ccc(N4CCN(S(=O)(=O)NC(=O)OC(C)C)CC4)cn3)nc2n(C2CCCC2)c1=O` [Compound A27, Isopropyl ((4-(6-((6-acetyl-8-cyclopentyl-5-methyl-7-oxo-7,8-dihydropyrido[2,3-d]pyrimidin-2-yl)amino)pyridin-3-yl)piperazin-1-yl)sulfonyl)carbamate] was run?
**A.** 0.2 to 0.5 µM

**Q.** And the IC50 (CDK4/cyclin D1)?
**A.** ≤ 0.2 µM

**Q.** What about the EC50 [1] of the same molecule?
**A.** 1 to 10 µM

**Q.** `CC(=O)c1c(C)c2cnc(Nc3ccc(N4CCN(S(=O)(=O)NC(=O)C(N)C(C)C)CC4)cn3)nc2n(C2CCCC2)c1=O` (stereo not drawn) [Compound A30, N-((4-(6-((6-Acetyl-8-cyclopentyl-5-methyl-7-oxo-7,8-dihydropyrido[2,3-d]-pyrimidin-2-yl)amino)pyridin-3-yl)piperazin-1-yl)sulfonyl)-2-amino-3-methylbutanamide] was tested. Which IC50 (CDK6/cyclin D1) did it give?
**A.** ≤ 0.2 µM

**Q.** And the IC50 (CDK4/cyclin D1)?
**A.** ≤ 0.2 µM

**Q.** What about the EC50 [1] of the same molecule?
**A.** ≤ 1 µM

**Q.** How did the IC50 (CDK6/cyclin D1) turn out when `CC(=O)c1c(C)c2cnc(Nc3ccc(N4CCN(S(=O)(=O)NC(=O)[C@H]5CCCN5)CC4)cn3)nc2n(C2CCCC2)c1=O` [Compound A33, (R)—N-((4-(6-((6-Acetyl-8-cyclopentyl-5-methyl-7-oxo-7,8-dihydropyrido[2,3-d]-pyrimidin-2-yl)amino)pyridin-3-yl)piperazin-1-yl)sulfonyl)pyrrolidine-2-carboxamide] was run?
**A.** ≤ 0.2 µM

**Q.** And the IC50 (CDK4/cyclin D1)?
**A.** ≤ 0.2 µM

**Q.** And the EC50 [1]?
**A.** ≤ 1 µM

**Q.** How did the IC50 (CDK6/cyclin D1) turn out when `CC(=O)NS(=O)(=O)N1CCN(c2ccc(Nc3ncc4c(C)c(C(C)=O)c(=O)n(C5CCCC5)c4n3)nc2)CC1` [Compound A34, N-((4-(6-((6-Acetyl-8-cyclopentyl-5-methyl-7-oxo-7,8-dihydropyrido[2,3-d]-pyrimidin-2-yl)amino)pyridin-3-yl)piperazin-1-yl)sulfonyl)acetamide] was run?
**A.** ≤ 0.2 µM

**Q.** And the IC50 (CDK4/cyclin D1)?
**A.** ≤ 0.2 µM

**Q.** What about the EC50 [1] of the same molecule?
**A.** > 10 µM

**Q.** Which results are given for `CC(=O)c1c(C)c2cnc(Nc3ccc(N4CCN(S(=O)(=O)NC(=O)C(C)C)CC4)cn3)nc2n(C2CCCC2)c1=O` [Compound A36, N-((4-(6-((6-Acetyl-8-cyclopentyl-5-methyl-7-oxo-7,8-dihydropyrido[2,3-d]-pyrimidin-2-yl)amino)pyridin-3-yl)piperazin-1-yl)sulfonyl)isobutyramide]?
**A.** IC50 (CDK6/cyclin D1): 0.2 to 0.5 µM; IC50 (CDK4/cyclin D1): ≤ 0.2 µM; EC50 [1]: 1 to 10 µM

**Q.** For `CCCC(=O)NS(=O)(=O)N1CCN(c2ccc(Nc3ncc4c(C)c(C(C)=O)c(=O)n(C5CCCC5)c4n3)nc2)CC1` [Compound A37, N-((4-(6-((6-Acetyl-8-cyclopentyl-5-methyl-7-oxo-7,8-dihydropyrido[2,3-d]-pyrimidin-2-yl)amino)pyridin-3-yl)piperazin-1-yl)sulfonyl)butyramide], which IC50 (CDK6/cyclin D1) is on record?
**A.** 0.2 to 0.5 µM

**Q.** And the IC50 (CDK4/cyclin D1)?
**A.** 0.2 to 0.5 µM

**Q.** And the EC50 [1]?
**A.** 1 to 10 µM

**Q.** Which results are given for `CC(=O)c1c(C)c2cnc(Nc3ccc(N4CCN(S(=O)(=O)NC(=O)C5CCC5)CC4)cn3)nc2n(C2CCCC2)c1=O` [Compound A41, N-((4-(6-((6-Acetyl-8-cyclopentyl-5-methyl-7-oxo-7,8-dihydropyrido[2,3-d]-pyrimidin-2-yl)amino)pyridin-3-yl)piperazin-1-yl)sulfonyl)cyclobutanecarboxamide]?
**A.** IC50 (CDK6/cyclin D1): 0.2 to 0.5 µM; IC50 (CDK4/cyclin D1): 0.2 to 0.5 µM; EC50 [1]: 1 to 10 µM

**Q.** For `CC(=O)c1c(C)c2cnc(Nc3ccc(N4CCN(S(=O)(=O)NCCO)CC4)cn3)nc2n(C2CCCC2)c1=O` [Compound A42, 4-(6-((6-Acetyl-8-cyclopentyl-5-methyl-7-oxo-7,8-dihydropyrido[2,3-d]-pyrimidin-2-yl)amino)pyridin-3-yl)-N-(2-hydroxyethyl)piperazine-1-sulfonamide], which IC50 (CDK6/cyclin D1) is on record?
**A.** ≤ 0.2 µM

**Q.** What about the IC50 (CDK4/cyclin D1) of the same molecule?
**A.** ≤ 0.2 µM

**Q.** What about the EC50 [1] of the same molecule?
**A.** 1 to 10 µM
